In patent US20100323989A1, “PHARMACEUTICAL COMBINATIONS USEFUL FOR TREATING HCV” (Gilead Sciences, Inc., priority 2009, published 2010):
Read-outs that look alike come from different tables or passages of the source.

How the values were obtained:
[1] = Pharmacokinetic drug-drug interaction study, single dose with multiple-dose partner, healthy subjects (Example 6); format: in vivo, human; details: for Compound 1 AUC0-last, % Geometric Least-Squares Mean Ratio (90% CI) / Compound 1 AUCinf, % Geometric Least-Squares Mean Ratio (90% CI) / Compound 1 Cmax, % Geometric Least-Squares Mean Ratio (90% CI): Compound 1 + Compound 2 / Compound 1 alone; for AUC(0-t) / AUC(0-inf) / Cmax / half-life: human, plasma
Experimental: In this study, healthy subjects were randomized into one of the following three treatment groups: […] Treatment Group 3 (N=20): […] Serial blood samples for analysis of plasma concentrations of Compound 2 were collected up to 72 hours post-morning dose on Days 1 and 10 to determine systemic drug exposure.

[2] = tested on: panel of protease inhibitor resistance-associated-mutations (NS3) in 1b PI-luc replicon; details: all NS3 protease mutants tested
[3] = Multiple-dose pharmacokinetic interaction study in healthy subjects (Example 5); format: in vivo, human
[4] = tested on: mutant 1b Con-1 PI-Luc replicons (major HCV NS5B polymerase inhibitor resistance mutations); assay: Transient transfection replicon assay, panel of NS5B polymerase inhibitor resistance mutations; format: cell-based, HCV genotype 1b; details: against all NS5B mutations tested
[5] = Multiple-dose pharmacokinetic interaction study in healthy subjects (Example 5); format: in vivo, human; remark: listed apart in the source
Experimental: Serial blood samples for analysis of plasma concentrations of Compound 2 were collected up to 120 hours after the morning dose on Days 7 and 21 to determine systemic drug exposure. Glossary of Abbreviations and Definitions of Terms Used in Example 5 • AUCtau The area under the concentration versus time curve over the dosing interval • AUC0-last Area under the concentration versus time curve from time zero to the last quantifiable concentration • AUCinf Area under the concentration versus time curve extrapolated to infinite time, calculated as AUC0-last+(Clast/λz) • BID twice daily • CI confidence interval • Cmax The maximum observed concentration of drug in plasma • Ctau The observed drug concentration at the end of the dosing interval • CV coefficient of variation

[6] = Group 1, Compound 1 20 mg with Compound 2 150 mg BID vs Compound 1 20 mg alone
[7] = Group 2, Compound 1 40 mg with Compound 2 150 mg BID vs Compound 1 40 mg alone
[8] = Compound 1 (40 mg BID) + Compound 2 (75 mg BID) / Compound 1 alone
[9] = coadministration of Compound 2 (75 mg BID) with Compound 1 (40 mg BID) vs Compound 1 alone
[10] = Compound 1 (40 mg BID) + Compound 2 (75 mg BID) / Compound 2 alone
[11] = coadministration of Compound 1 (40 mg BID) with Compound 2 (75 mg BID) vs Compound 2 alone
[12] = Group 3, Compound 1 + Compound 2 / Compound 2 alone
[13] = Group 3, Compound 2 75 mg with Compound 1 40 mg BID vs Compound 2 75 mg alone

## Fc1ccccc1-c1nc2ccn(Cc3ccc(-c4ccc(C(F)(F)F)cc4C(F)(F)F)nn3)cc-2n1 [Compound 1, 5-({6-[2,4-bis(trifluoromethyl)phenyl]pyridazin-3-yl}methyl)-2-(2-fluorophenyl)-5H-imidazo[4,5-c]pyridine]
[1]; Group 1 (Compound 1 20 mg)
  Compound 1 AUC0-last, % Geometric Least-Squares Mean Ratio (90% CI): 250.5 (217.8, 288.0) %
  Compound 1 AUCinf, % Geometric Least-Squares Mean Ratio (90% CI): 321.1 (262.8, 392.2) %
  Compound 1 Cmax, % Geometric Least-Squares Mean Ratio (90% CI): 123.1 (111.6, 135.7) %
[1]; [6]
  increase in AUC0-last of Compound 1: 151%
  increase in AUCinf of Compound 1: 221%
  increase in Cmax of Compound 1: 23%
[1]; Group 2 (Compound 1 40 mg)
  Compound 1 AUC0-last, % Geometric Least-Squares Mean Ratio (90% CI): 253.0 (229.3, 279.1) %
  Compound 1 AUCinf, % Geometric Least-Squares Mean Ratio (90% CI): 350.4 (300.2, 409.1) %
  Compound 1 Cmax, % Geometric Least-Squares Mean Ratio (90% CI): 136.8 (122.7, 152.6) %
[1]; [7]
  increase in AUC0-last of Compound 1: 153%
  increase in AUCinf of Compound 1: 250%
  increase in Cmax of Compound 1: 37%
[1]; both groups (20 and 40 mg), with Compound 2 150 mg BID vs Compound 1 alone
  increase in median Compound 1 terminal phase elimination half-life: approximately 2 fold
[1]; 20 mg, Compound 1 AUC0-last, Mean (% CV), Group 1, human, single-dose Compound 1 20 mg alone
  AUC(0-t): 12800 ng·h/mL
[1]; 20 mg, Compound 1 AUCinf, Mean (% CV), Group 1, human, single-dose Compound 1 20 mg alone
  AUC(0-inf): 13400 ng·h/mL
[1]; 20 mg, Compound 1 Cmax, Mean (% CV), Group 1, human, single-dose Compound 1 20 mg alone
  Cmax: 940 ng/mL
[1]; 20 mg, Compound 1 T1/2, Median (min, max), Group 1, human, single-dose Compound 1 20 mg alone
  half-life: 16.6 h
[1]; 40 mg, Compound 1 AUC0-last, Mean (% CV), Group 2, human, single-dose Compound 1 40 mg alone
  AUC(0-t): 34100 ng·h/mL
[1]; 40 mg, Compound 1 AUCinf, Mean (% CV), Group 2, human, single-dose Compound 1 40 mg alone
  AUC(0-inf): 35500 ng·h/mL
[1]; 40 mg, Compound 1 Cmax, Mean (% CV), Group 2, human, single-dose Compound 1 40 mg alone
  Cmax: 1980 ng/mL
[1]; 40 mg, Compound 1 T1/2, Median (min, max), Group 2, human, single-dose Compound 1 40 mg alone
  half-life: 19.2 h
[1]; Compound 1 AUC0-last, Mean (% CV), Group 1, human, single-dose Compound 1 20 mg + multiple-dose Compound 2 150 mg BID
  AUC(0-t): 32600 ng·h/mL
[1]; Compound 1 AUC0-last, Mean (% CV), Group 2, human, single-dose Compound 1 40 mg + multiple-dose Compound 2 150 mg BID
  AUC(0-t): 87500 ng·h/mL
[1]; Compound 1 AUCinf, Mean (% CV), Group 1, human, single-dose Compound 1 20 mg + multiple-dose Compound 2 150 mg BID
  AUC(0-inf): 49500 ng·h/mL
[1]; Compound 1 AUCinf, Mean (% CV), Group 2, human, single-dose Compound 1 40 mg + multiple-dose Compound 2 150 mg BID
  AUC(0-inf): 137000 ng·h/mL
[1]; Compound 1 Cmax, Mean (% CV), Group 1, human, single-dose Compound 1 20 mg + multiple-dose Compound 2 150 mg BID
  Cmax: 1140 ng/mL
[1]; Compound 1 Cmax, Mean (% CV), Group 2, human, single-dose Compound 1 40 mg + multiple-dose Compound 2 150 mg BID
  Cmax: 2730 ng/mL
[1]; Compound 1 T1/2, Median (min, max), Group 1, human, single-dose Compound 1 20 mg + multiple-dose Compound 2 150 mg BID
  half-life: 35.8 h
[1]; Compound 1 T1/2, Median (min, max), Group 2, human, single-dose Compound 1 40 mg + multiple-dose Compound 2 150 mg BID
  half-life: 39.3 h
[2]
  fold change in EC50 values from wild-type: ≤ 1.2 fold
[3]; [8]
  Compound 1 AUCtau, % Geometric Least Square Mean Ratio (90% CI): 206.4 (185.1, 230.0) %
  Compound 1 Cmax, % Geometric Least Square Mean Ratio (90% CI): 185.2 (167.3, 205.0) %
  Compound 1 Ctau, % Geometric Least Square Mean Ratio (90% CI): 251.2 (219.5, 287.5) %
[3]; [9]
  increase in AUCtau of Compound 1: 106%
  increase in Cmax of Compound 1: 85%
  increase in Ctau of Compound 1: 151%
[3]; human, plasma, po, 40 mg
  AUC: 43400 ng·h/mL
  Cmax: 5040 ng/mL
  concentration at 12 h: 2570 ng/mL

## COc1ccc2c(O[C@@H]3C[C@H]4C(=O)N[C@]5(P(=O)(O)Cc6c(F)cccc6F)C[C@H]5CCCCCCC[C@H](NC(=O)OC5CCCC5)C(=O)N4C3)cc(-c3csc(NC(C)C)n3)nc2c1Cl [Compound 2]
[4]
  fold change in EC50 values from wild-type: ≤ 2.1 fold
[5]; [10]
  Compound 2 AUCtau, % Geometric Least Square Mean Ratio (90% CI): 75.9 (62.0, 93.0) %
  Compound 2 Cmax, % Geometric Least Square Mean Ratio (90% CI): 80.0 (66.7, 95.6) %
  Compound 2 Ctau, % Geometric Least Square Mean Ratio (90% CI): 70.0 (55.9, 87.5) %
[5]; [11]
  decrease in AUCtau of Compound 2: 24%
  decrease in Cmax of Compound 2: 20%
  decrease in Ctau of Compound 2: 30%
[5]; plasma, human, oral, Compound 2 (75 mg BID) alone, Day 7, read-out: Compound 2 AUCtau, Mean (% CV)
  AUC: 35300 ng·h/mL
[1]; [12]
  Compound 2 AUC0-last, % Geometric Least-Squares Mean Ratio (90% CI): 83.8 (75.5, 93.2) %
  Compound 2 AUCinf, % Geometric Least-Squares Mean Ratio (90% CI): 84.9 (76.6, 94.1) %
  Compound 2 Cmax, % Geometric Least-Squares Mean Ratio (90% CI): 81.3 (72.5, 91.1) %
[1]; Group 3, Compound 2 75 mg alone vs with Compound 1 40 mg BID
  Median terminal elimination half-lives of Compound 2, comparison between the two treatments: similar
[1]; [13]
  decrease in AUC0-last of Compound 2: 16%
  decrease in AUCinf of Compound 2: 15%
  decrease in Cmax of Compound 2: 19%
[1]; 75 mg, Group 3, human, Compound 2 75 mg SD alone, read-out: Compound 2 AUC0-last, Mean (% CV)
  AUC(0-t): 8790 ng·h/mL
[1]; 75 mg, Group 3, human, Compound 2 75 mg SD alone, read-out: Compound 2 AUCinf, Mean (% CV)
  AUC(0-inf): 9460 ng·h/mL
[1]; 75 mg, Group 3, human, Compound 2 75 mg SD alone, read-out: Compound 2 Cmax, Mean (% CV)
  Cmax: 1040 ng/mL
[1]; 75 mg, Group 3, human, Compound 2 75 mg SD alone, read-out: Compound 2 T1/2, Median (min, max) (converted)
  half-life: 5.05 h
[1]; Group 3, human, Compound 2 75 mg SD + Compound 1 40 mg BID, read-out: Compound 2 AUC0-last, Mean (% CV)
  AUC(0-t): 7270 ng·h/mL
[1]; Group 3, human, Compound 2 75 mg SD + Compound 1 40 mg BID, read-out: Compound 2 AUCinf, Mean (% CV)
  AUC(0-inf): 7920 ng·h/mL
[1]; Group 3, human, Compound 2 75 mg SD + Compound 1 40 mg BID, read-out: Compound 2 Cmax, Mean (% CV)
  Cmax: 830 ng/mL
[1]; Group 3, human, Compound 2 75 mg SD + Compound 1 40 mg BID, read-out: Compound 2 T1/2, Median (min, max) (converted)
  half-life: 6.06 h
[3]; plasma, human, oral, Compound 2 (75 mg BID) alone, Day 7, read-out: Compound 2 Cmax, Mean (% CV)
  Cmax: 4500 ng/mL
[3]; plasma, human, oral, Compound 2 (75 mg BID) alone, Day 7, read-out: Compound 2 Ctau, Mean (% CV)
  concentration at 12 h: 1550 ng/mL
